Laboratory results reported in US5792635A, “Method of inhibiting the sodium/proton exchanger NHE3 and method of inhibiting growth by administering squalamine” (priority 1995, dated 1998).
In brackets after ≈: the same amount, converted by molar mass. Entries after “also recorded” stand apart in the source; their conditions may differ.

Experiments:
[1] = tested on: L1210 lymphoblastic leukemia cells; assay: Mouse model of leukemia (L1210), survival and hematological profile; conditions: L1210-inoculated mice
Description: C57B mice were inoculated with L1210 lymphoblastic leukemia cells at an inoculum that causes leukemia in 100% of animals.

NHE1β = conditions: nucleated erythrocytes; cited from earlier work
HM = HM MTT assay (Table II); format: cell-based; conditions: read-out: Minimum Effective Concentration, HM MTT assay
[2] = tested on: human microvascular cells; assay: Inhibition of endothelial cell cord formation in vitro; format: cell-based; conditions: for minimal effective concentration: Homo sapiens, Endothelial cell, Table II, read-out: Minimum Effective Concentration, Cord Formation
Description: Endothelial cells have the capacity in vitro to form tubular aggregates resembling capillaries in various early stages of formation. This conversion occurs under relatively specific conditions, in which essential growth factors along with an effective substratum are provided. It has been shown that both the interaction of growth factors with the endothelial cell and its attachment to a substratum activate the NHE. The activation of this exchanger is believed to be required for subsequent morphologic transformation of the endothelial cell into a multicellular tubular structure.
To assess the effect of compounds on the cord-like structures formed by human microvascular cells when plated in the presence of VEGF (Vascular Endothelial Growth Factor) and basic fibroblast growth factor on a collagen matrix, a standard cord formation assay was used.

chick embryo = assay: Chick embryo diss. assay (Table II); format: in vivo
Protocol: (§1) Using the chick embryo vitelline capillaries assay, compounds were tested for their ability to induce capillary regression. Each compound was applied in 0.1 ml of 15% Ficol 400 and PBS onto the embryo, and vascular regression was assessed after 60 minutes.

LLC = LLC MTT assay (Table II); format: cell-based; conditions: Lewis lung carcinoma, read-out: Minimum Effective Concentration, LLC MTT
Xenopus tadpoles [3] = assay: Tadpole assay; conditions: for observed response in tadpole: 10 μg/ml, stage 59-60 Xenopus; for functional similarity in tadpole assay: Xenopus tadpole assay
[4] = Effect on fasting blood glucose in mice; format: in vivo, mouse (CD-1); conditions: intravenous; 1436 in D5W, 1437 in water
Protocol: To study the effect of steroid administrator or the NHE responsible for secretion of insulin, several of the aminosterols from shark liver were administered to fasting mice. Male CD-1 mice were assigned to one of four treatment groups. Whole blood glucose was tested using glucometer (Lifescan Glucometer II and One Touch test strips). Statistical analysis was via one-way analysis of variance (ANOVA) followed by subsequent Bonferonni's t-test.

[5] = tested on: Human ovarian carcinoma SKOV3; assay: Cancer cells inhibited in vitro; format: cell-based; conditions: SKOV3
Protocol: As set forth in Table 7 below, all malignant tumors evaluated in tissue culture, endothelial cells and vascular smooth muscle cells were sensitive to inhibition. Thus, compound 1436 has application in the control of growth factor dependent proliferation of many types of tissue.
Using the assay described above, the anticancer effects of compound 1437 against several cancer lines was assessed.

[6] = tested on: vitelline capillaries of 3- to 5-day chick embryo; assay: Chick embryo vitelline capillary regression assay; format: in vivo; set-up: key to vascular reactivity: +: Vascular reactivity; 0: No vascular reactivity; +/-: Equivocal reactivity; conditions: for activity in vitelline capillary regression assay: Table 5
Protocol: as §1
The 3-day chick embryo consists of an embryonic disc from which numerous vessels emerge and return, forming a "figure 8"-shaped structure--the embryo in the center with vascular loops extending outward over both poles. […] Following a lag period of around 15 minutes, the constriction of continuity between capillary and secondary vessels, generally on the "venous" side, was observed. Continued pulsatile blood flow progressed, resulting in a "swelling" of the blind tube, followed by a pinching off of the remaining connection and formation of an enclosed vascular sac resembling a "blood island." This process progressed until only the largest vessels remained intact.

C. albicans = assay: Antibiotic activity, MIC; format: cell-based; conditions: Candida albicans
E. Coli = assay: Antibiotic activity, MIC; format: cell-based; conditions: Escherichia coli
P. = assay: Antibiotic activity, MIC; format: cell-based; conditions: read-out: MIC Values
S. aureus = assay: Antibiotic activity, MIC; format: cell-based; conditions: Staphylococcus aureus
Xenopus tadpoles [7] = conditions: in vivo
NHE = assay: Assay for direct inhibition of NHE; format: cell-based; conditions: relative to squalamine
Description: Moreover, other aminosterols have shown anti-angiogenic activity. Compounds were subjected to a various assays, including the chick embryo capillary regression assay, the tadpole assay, the assay for inhibition of endothelial cord formation, and the assay for direct inhibition of NHE, as described above, to determine their utilities. As evident from the above data, correlation among the results from the chick, tadpole and in vitro inhibition of endothelial cell cord formation assays is excellent.
Through the application of these assays, compound 319 emerged as an attractive alternative to squalamine. […] Further properties of compound 319 are discussed below.

N.N.[Cl][Pt][Cl] [Cisplatin, reference compound]
hematological profile [1]: profound anemia by day 28

N=C(N)NC(=O)c1nc(Cl)c(N)nc1N [Amiloride]
inhibition of NHE1β (NHE1β): inhibited by high concentrations of amiloride

COC(=O)CCC(C)[C@H]1CCC2C3C(CC[C@@]21C)[C@@]1(C)CC[C@@H](NCCN)C[C@H]1C[C@H]3O (stereo partly drawn) [drawing 93]
minimal effective concentration (HM): 2.6 µg/mL | minimal effective concentration [2]: 10 µg/mL | Minimum Effective Concentration, chick embryo diss. assay (chick embryo): 0.01 µg

CC(C)[C@@H](CC[C@@H](C)[C@H]1CC[C@H]2[C@@H]3[C@H](O)C[C@H]4C[C@@H](NCCCNCCCCNCCCN)CC[C@]4(C)[C@H]3CC[C@]12C)OS(=O)(=O)O [drawing 119]
minimal effective concentration (LLC): 16.7 µg/mL | minimal effective concentration (HM): 6.9 µg/mL

CC(C)C(CO)(CC[C@@H](C)[C@H]1CC[C@H]2[C@@H]3[C@H](O)C[C@H]4C[C@@H](NCCCNCCCCN)CC[C@]4(C)[C@H]3CC[C@]12C)OS(=O)(=O)O (single isomer, unassigned) [Compound 1437]
observed response in tadpole (Xenopus tadpoles [3]): Epithelium covering the embryonic portions of the animal, such as the tail and antennae, began to slough off in sheets; also recorded: Animal was otherwise active, with little tissue breakdown noted; also recorded: the larval skin was observed to shed off in a sheet | hyperglycemic response [4]: caused hyperglycemia in mice | anticancer activity [5]: anticancer activity

CC(CCC(=O)O)[C@H]1CCC2C3C(CC[C@@]21C)[C@@]1(C)CC[C@@H](NCCCNCCCCNCCCN)C[C@H]1C[C@H]3O (stereo partly drawn) [drawing 110]
minimal effective concentration (HM): 18.1 µg/mL | minimal effective concentration [2]: > 10 µg/mL

COC(=O)CCC(C)[C@H]1CCC2C3CC[C@H]4C[C@@H](NCCCNCCCCNCCCN)CC[C@]4(C)C3CC[C@@]21C (stereo partly drawn) [drawing 99]
minimal effective concentration (HM): 5 µg/mL

CC(CCC(=O)O)[C@H]1CCC2C3C(CC[C@@]21C)[C@@]1(C)CC[C@H](NCCN)C[C@H]1C[C@H]3O (stereo partly drawn) [drawing 113]
minimal effective concentration [2]: > 10 µg/mL

C[C@H](CCC(=O)O)[C@H]1CC[C@H]2[C@@H]3[C@H](O)C[C@@H]4C[C@@H](NCCCNCCCCNCCCN)CC[C@]4(C)[C@H]3CC[C@]12C [Compound 413]
functional similarity in tadpole assay (Xenopus tadpoles [3]): effects like those produced by compound 1436 | endothelial cord formation ([2]; 0.1 μg/ml): - | vascular reactivity ([6]; 1 μg applied, 60 minutes): 0

CC(C)CCC[C@@H](C)[C@H]1CC[C@H]2[C@@H]3CC[C@H]4C[C@H](NCCCCN)CC[C@]4(C)[C@H]3CC[C@]12C
MIC (C. albicans): 64 µg/mL (≈ 139 µM) | MIC (E. Coli): > 256 µg/mL | MIC (P.): > 256 µg/mL | MIC (S. aureus): 4 µg/mL (≈ 8.72 µM)

C[C@H](CCC(=O)O)[C@H]1CC[C@H]2[C@@H]3[C@H](O)C[C@@H]4C[C@H](NCCCNCCCCNCCCN)CC[C@]4(C)[C@H]3CC[C@]12C [Compound 412]
functional similarity in tadpole assay (Xenopus tadpoles [3]): pharmacologic activity similar to that seen for FX 3 | endothelial cord formation ([2]; 10.0 μg/ml): +

COC(=O)CCC(C)[C@H]1CCC2C3C(CC[C@@]21C)[C@@]1(C)CC[C@H](NCCCNCCCCNCCCN)C[C@H]1C[C@H]3O (stereo partly drawn) [drawing 109]
minimal effective concentration [2]: 10 µg/mL | Minimum Effective Concentration, chick embryo diss. assay (chick embryo): > 1 µg

CC(C)[C@@H](CC[C@@H](C)[C@H]1CC[C@H]2[C@@H]3[C@H](O)C[C@H]4C[C@@H](NCCCNCCCCN)CC[C@]4(C)[C@H]3CC[C@]12C)OS(=O)(=O)O [drawing 116]
minimal effective concentration (HM): 7.8 µg/mL

CC(CCC(=O)O)[C@H]1CCC2C3CC[C@H]4C[C@@H](NCCCNCCCCN)CC[C@]4(C)C3CC[C@@]21C (stereo partly drawn)
minimal effective concentration (HM): 13.8 µg/mL | Minimum Effective Concentration, chick embryo diss. assay (chick embryo): 0.001 µg

CC(C)CCC[C@@H](C)[C@H]1CC[C@H]2[C@@H]3CC[C@H]4C[C@@H](NCCCCN)CC[C@]4(C)[C@H]3CC[C@]12C
MIC (C. albicans): > 256 µg/mL | MIC (E. Coli): > 256 µg/mL | MIC (P.): > 256 µg/mL | MIC (S. aureus): 16 µg/mL (≈ 34.9 µM)

C[C@H](CCC(=O)O)[C@H]1CC[C@H]2[C@@H]3CC[C@H]4C[C@@H](NCCCNCCCCN)CC[C@]4(C)[C@H]3CC[C@]12C [Compound 319]
CNS effects (Xenopus tadpoles [7]): no CNS effects | potency as an NHE inhibitor (NHE): superior to squalamine | observed response in tadpole (Xenopus tadpoles [3]): common vascular occlusive effect | activity in vitelline capillary regression assay [6]: especially active

COC(=O)CCC(C)[C@H]1CCC2C3CC[C@@H]4C[C@H](NCCN)CC[C@]4(C)C3C[C@H](O)[C@@]21C (stereo partly drawn) [drawing 114]
minimal effective concentration (HM): 2.4 µg/mL

CC(C)C(O)CC[C@@H](C)[C@H]1CC[C@H]2[C@@H]3[C@H](O)C[C@H]4C[C@@H](NCCCNCCCCN(C)C)CC[C@]4(C)[C@H]3CC[C@]12C (stereo partly drawn)
MIC (P.): 129 µg/mL (≈ 224 µM)

CC(C)CCCC(C)[C@H]1CCC2C3C(CC[C@@]21C)[C@@]1(C)CC[C@@H](NCCCNCCCCN)C[C@@H]1C[C@H]3O (stereo partly drawn) [drawing 86]
minimal effective concentration (HM): 4 µg/mL | Minimum Effective Concentration, chick embryo diss. assay (chick embryo): > 10 µg

CC(CCC(=O)O)[C@H]1CCC2C3C(CC[C@@]21C)[C@@]1(C)CC[C@H](NCCCNCCCCNCCCN)C[C@H]1C[C@H]3O (stereo partly drawn)
minimal effective concentration [2]: > 10 µg/mL

COC(=O)CCC(C)[C@H]1CCC2C3CC[C@H]4C[C@H](NCCCNCCCCNCCCN)CC[C@]4(C)C3CC[C@@]21C (stereo partly drawn) [drawing 108]
minimal effective concentration (LLC): 6.8 µg/mL | Minimum Effective Concentration, chick embryo diss. assay (chick embryo): > 1 µg

C[C@H](CCC(=O)O)[C@H]1CC[C@H]2[C@@H]3[C@H](O)C[C@@H]4C[C@@H](NCCN)CC[C@]4(C)[C@H]3CC[C@]12C [Compound 415]
endothelial cord formation ([2]; 10.0 μg/ml): +/T | activity in vitelline capillary regression assay [6]: especially active
